Experimental data from PubChem BioAssay (NCI).
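Values below derive from 48-hour exposures of cells grown in 96-well plates, with endpoints linearly interpolated between the two concentrations bracketing the appropriate inhibition level. TGI is the concentration that stops growth completely.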

Each molecule was assayed on K-562 leukemia (assay: DTP human tumour cell line panel, 48 h).

Compound | TGI [µM]
COc1cc(C[S+]2CCCC2)c(SC)cc1C[S+]1CCCC1 | > 100
CCn1c(-c2cc(OC)cc(OC)c2)nc2c1C(=O)c1ccccc1C2=O | > 100
COc1cc(-c2cc(=O)c3c(OC)c(OC)c(OC)c(OC)c3o2)c(OC)c(OC)c1OC | > 100
C[C@]12C=CC(=O)C=C1CC[C@H]1[C@@H]3C[C@@H](O)[C@](O)(C(=O)CO)[C@@]3(C)C[C@H](O)[C@@]12F | > 100
O=S(=O)(c1ccccc1)n1c2cc3cccnc3nc2c2cccnc21 | 55.3
COc1cc(/C=C2\CCC(C)C3C2=NN(C(C)=O)C3c2cc(OC)c(OC)c(OC)c2)cc(OC)c1OC (centres undefined) | > 100
Cc1cc(N(CCC#N)CCC#N)ccc1/C(N=Nc1ccc([N+](=O)[O-])cc1)=N\NC(=O)c1cc(Cl)ccc1C(=O)c1ccccc1 | > 100
CC(=O)NC1C(OCc2ccccc2)OC(CO)C(O)C1OC(C)C(=O)NC(C)C(=O)NC(CCC(=O)NCCCNc1c2ccccc2nc2cccc([N+](=O)[O-])c12)C(N)=O (centres undefined) | 11.1
NC(=O)C(N)Cc1ccc(O)cn1 (centres undefined) | > 100
CC[N+](CC)(CCNCC(N)=O)CC(N)=O | > 10
COc1ccc(N=C2SC(=N/N=c3\sc4ccccc4n3C)SC2=Nc2ccc(OC)cc2)cc1 | > 100
Cc1ccc(/C=N/n2c(=O)[nH]c3ccccc3c2=O)cc1 | > 100
S=C(c1c[nH]c2ccccc12)N1CCOCC1 | > 100
COc1ccc(C2CC(=O)CC(c3ccc(OC)cc3)C23C(=O)NC(=O)NC3=O)cc1 (centres undefined) | > 100
c1ccc2sc(C3(N4CCCC4)CCCCCC3)cc2c1 | 38.5

Each molecule was assayed on 786-0 renal (assay: DTP human tumour cell line panel, 48 h).

Compound | TGI [µM]
CC1CC(N)=Nc2ccccc2N1 (centres undefined) | > 100
S=C(NCc1ccccc1)c1nc[nH]c1C(=S)NCc1ccccc1 | 18.8
CC(C)(Cc1ccccc1)NC1=NCCO1 | > 100
CN(c1ccc(Cl)cc1)S(=O)(=O)c1cccc([N+](=O)[O-])c1 | > 100
O=C(c1ccc(O)cc1)C1c2c3c(cc(O)c2C(c2ccc(O)cc2)C1c1cc(O)cc(O)c1)OC(c1ccc(O)cc1)C3c1cc2c(cc1O)OC(c1ccc(O)cc1)C2c1cc(O)cc(O)c1 (centres undefined) | > 12.5
Cc1cc2nc3c(C#N)c(-c4ccccc4)cc(Nc4ccc(Cl)cc4)n3c2cc1C | > 100
CN(c1ccc(Cl)cc1)S(=O)(=O)c1ccc([N+](=O)[O-])cc1 | > 100
O=C1OC[C@@H]2Cc3cc4c(cc3[C@H](c3ccc5c(c3)OCO5)[C@@H]12)OCO4 | > 25
O=S1(=O)OCCOS(=O)(=O)C1F | > 100
CC(=O)n1nc(-c2ccccc2)n(/N=C/c2ccc([N+](=O)[O-])cc2)c1=O | > 100
COc1cc(C[S+]2CCCC2)c(SC)cc1C[S+]1CCCC1 | > 100
CCn1c(-c2cc(OC)cc(OC)c2)nc2c1C(=O)c1ccccc1C2=O | > 100
COc1cc(-c2cc(=O)c3c(OC)c(OC)c(OC)c(OC)c3o2)c(OC)c(OC)c1OC | > 100
C[C@]12C=CC(=O)C=C1CC[C@H]1[C@@H]3C[C@@H](O)[C@](O)(C(=O)CO)[C@@]3(C)C[C@H](O)[C@@]12F | > 100
O=S(=O)(c1ccccc1)n1c2cc3cccnc3nc2c2cccnc21 | > 100
COc1cc(/C=C2\CCC(C)C3C2=NN(C(C)=O)C3c2cc(OC)c(OC)c(OC)c2)cc(OC)c1OC (centres undefined) | > 100
Cc1cc(N(CCC#N)CCC#N)ccc1/C(N=Nc1ccc([N+](=O)[O-])cc1)=N\NC(=O)c1cc(Cl)ccc1C(=O)c1ccccc1 | 52.7
CC(=O)NC1C(OCc2ccccc2)OC(CO)C(O)C1OC(C)C(=O)NC(C)C(=O)NC(CCC(=O)NCCCNc1c2ccccc2nc2cccc([N+](=O)[O-])c12)C(N)=O (centres undefined) | > 100
NC(=O)C(N)Cc1ccc(O)cn1 (centres undefined) | > 100
CC[N+](CC)(CCNCC(N)=O)CC(N)=O | > 10
COc1ccc(N=C2SC(=N/N=c3\sc4ccccc4n3C)SC2=Nc2ccc(OC)cc2)cc1 | > 100
Cc1ccc(/C=N/n2c(=O)[nH]c3ccccc3c2=O)cc1 | > 100
S=C(c1c[nH]c2ccccc12)N1CCOCC1 | > 100
COc1ccc(C2CC(=O)CC(c3ccc(OC)cc3)C23C(=O)NC(=O)NC3=O)cc1 (centres undefined) | > 100
COC(C)(C)C1=CCC(C)CC1 (centres undefined) | > 100
c1ccc2sc(C3(N4CCCC4)CCCCCC3)cc2c1 | 27.7

The molecules below were run on MOLT-4 leukemia (assay: DTP human tumour cell line panel, 48 h).

Compound | TGI [µM]
CC1CC(N)=Nc2ccccc2N1 (centres undefined) | > 100
S=C(NCc1ccccc1)c1nc[nH]c1C(=S)NCc1ccccc1 | 25.4
CC(C)(Cc1ccccc1)NC1=NCCO1 | > 100
CN(c1ccc(Cl)cc1)S(=O)(=O)c1cccc([N+](=O)[O-])c1 | > 100
O=C(c1ccc(O)cc1)C1c2c3c(cc(O)c2C(c2ccc(O)cc2)C1c1cc(O)cc(O)c1)OC(c1ccc(O)cc1)C3c1cc2c(cc1O)OC(c1ccc(O)cc1)C2c1cc(O)cc(O)c1 (centres undefined) | > 12.5
CN(c1ccc(Cl)cc1)S(=O)(=O)c1ccc([N+](=O)[O-])cc1 | > 100
O=C1OC[C@@H]2Cc3cc4c(cc3[C@H](c3ccc5c(c3)OCO5)[C@@H]12)OCO4 | > 25
O=S1(=O)OCCOS(=O)(=O)C1F | > 100
CC(=O)n1nc(-c2ccccc2)n(/N=C/c2ccc([N+](=O)[O-])cc2)c1=O | > 100
COc1cc(C[S+]2CCCC2)c(SC)cc1C[S+]1CCCC1 | > 100
CCn1c(-c2cc(OC)cc(OC)c2)nc2c1C(=O)c1ccccc1C2=O | > 100
COc1cc(-c2cc(=O)c3c(OC)c(OC)c(OC)c(OC)c3o2)c(OC)c(OC)c1OC | > 100
C[C@]12C=CC(=O)C=C1CC[C@H]1[C@@H]3C[C@@H](O)[C@](O)(C(=O)CO)[C@@]3(C)C[C@H](O)[C@@]12F | > 100
O=S(=O)(c1ccccc1)n1c2cc3cccnc3nc2c2cccnc21 | > 100
COc1cc(/C=C2\CCC(C)C3C2=NN(C(C)=O)C3c2cc(OC)c(OC)c(OC)c2)cc(OC)c1OC (centres undefined) | > 100
Cc1cc(N(CCC#N)CCC#N)ccc1/C(N=Nc1ccc([N+](=O)[O-])cc1)=N\NC(=O)c1cc(Cl)ccc1C(=O)c1ccccc1 | 38.8
CC(=O)NC1C(OCc2ccccc2)OC(CO)C(O)C1OC(C)C(=O)NC(C)C(=O)NC(CCC(=O)NCCCNc1c2ccccc2nc2cccc([N+](=O)[O-])c12)C(N)=O (centres undefined) | > 100
NC(=O)C(N)Cc1ccc(O)cn1 (centres undefined) | > 100
CC[N+](CC)(CCNCC(N)=O)CC(N)=O | > 10
COc1ccc(N=C2SC(=N/N=c3\sc4ccccc4n3C)SC2=Nc2ccc(OC)cc2)cc1 | > 100
Cc1ccc(/C=N/n2c(=O)[nH]c3ccccc3c2=O)cc1 | > 100
S=C(c1c[nH]c2ccccc12)N1CCOCC1 | > 100
COc1ccc(C2CC(=O)CC(c3ccc(OC)cc3)C23C(=O)NC(=O)NC3=O)cc1 (centres undefined) | 64.8
COC(C)(C)C1=CCC(C)CC1 (centres undefined) | > 100
c1ccc2sc(C3(N4CCCC4)CCCCCC3)cc2c1 | 29.3

The molecules below were run on NCI-H460 lung (assay: DTP human tumour cell line panel, 48 h).

Compound | TGI [µM]
S=C(NCc1ccccc1)c1nc[nH]c1C(=S)NCc1ccccc1 | 18.7
CC(C)(Cc1ccccc1)NC1=NCCO1 | > 100
CN(c1ccc(Cl)cc1)S(=O)(=O)c1cccc([N+](=O)[O-])c1 | > 100
O=C(c1ccc(O)cc1)C1c2c3c(cc(O)c2C(c2ccc(O)cc2)C1c1cc(O)cc(O)c1)OC(c1ccc(O)cc1)C3c1cc2c(cc1O)OC(c1ccc(O)cc1)C2c1cc(O)cc(O)c1 (centres undefined) | > 12.5
Cc1cc2nc3c(C#N)c(-c4ccccc4)cc(Nc4ccc(Cl)cc4)n3c2cc1C | > 100
CN(c1ccc(Cl)cc1)S(=O)(=O)c1ccc([N+](=O)[O-])cc1 | > 100
O=C1OC[C@@H]2Cc3cc4c(cc3[C@H](c3ccc5c(c3)OCO5)[C@@H]12)OCO4 | > 25
CC(=O)n1nc(-c2ccccc2)n(/N=C/c2ccc([N+](=O)[O-])cc2)c1=O | > 100
COc1cc(C[S+]2CCCC2)c(SC)cc1C[S+]1CCCC1 | > 100
CCn1c(-c2cc(OC)cc(OC)c2)nc2c1C(=O)c1ccccc1C2=O | > 100
COc1cc(-c2cc(=O)c3c(OC)c(OC)c(OC)c(OC)c3o2)c(OC)c(OC)c1OC | > 100
C[C@]12C=CC(=O)C=C1CC[C@H]1[C@@H]3C[C@@H](O)[C@](O)(C(=O)CO)[C@@]3(C)C[C@H](O)[C@@]12F | > 100
O=S(=O)(c1ccccc1)n1c2cc3cccnc3nc2c2cccnc21 | > 100
COc1cc(/C=C2\CCC(C)C3C2=NN(C(C)=O)C3c2cc(OC)c(OC)c(OC)c2)cc(OC)c1OC (centres undefined) | > 100
Cc1cc(N(CCC#N)CCC#N)ccc1/C(N=Nc1ccc([N+](=O)[O-])cc1)=N\NC(=O)c1cc(Cl)ccc1C(=O)c1ccccc1 | 43.2
CC(=O)NC1C(OCc2ccccc2)OC(CO)C(O)C1OC(C)C(=O)NC(C)C(=O)NC(CCC(=O)NCCCNc1c2ccccc2nc2cccc([N+](=O)[O-])c12)C(N)=O (centres undefined) | 1.96
NC(=O)C(N)Cc1ccc(O)cn1 (centres undefined) | > 100
CC[N+](CC)(CCNCC(N)=O)CC(N)=O | > 10
COc1ccc(N=C2SC(=N/N=c3\sc4ccccc4n3C)SC2=Nc2ccc(OC)cc2)cc1 | > 100
Cc1ccc(/C=N/n2c(=O)[nH]c3ccccc3c2=O)cc1 | > 100
S=C(c1c[nH]c2ccccc12)N1CCOCC1 | > 100
COc1ccc(C2CC(=O)CC(c3ccc(OC)cc3)C23C(=O)NC(=O)NC3=O)cc1 (centres undefined) | > 100
COC(C)(C)C1=CCC(C)CC1 (centres undefined) | > 100
c1ccc2sc(C3(N4CCCC4)CCCCCC3)cc2c1 | 30.1

Each molecule was assayed on SF-268 CNS (assay: DTP human tumour cell line panel, 48 h).

Compound | TGI [µM]
CC1CC(N)=Nc2ccccc2N1 (centres undefined) | > 100
S=C(NCc1ccccc1)c1nc[nH]c1C(=S)NCc1ccccc1 | 19.8
CN(c1ccc(Cl)cc1)S(=O)(=O)c1cccc([N+](=O)[O-])c1 | > 100
O=C(c1ccc(O)cc1)C1c2c3c(cc(O)c2C(c2ccc(O)cc2)C1c1cc(O)cc(O)c1)OC(c1ccc(O)cc1)C3c1cc2c(cc1O)OC(c1ccc(O)cc1)C2c1cc(O)cc(O)c1 (centres undefined) | > 12.5
Cc1cc2nc3c(C#N)c(-c4ccccc4)cc(Nc4ccc(Cl)cc4)n3c2cc1C | > 100
CN(c1ccc(Cl)cc1)S(=O)(=O)c1ccc([N+](=O)[O-])cc1 | > 100
O=S1(=O)OCCOS(=O)(=O)C1F | > 100
CC(=O)n1nc(-c2ccccc2)n(/N=C/c2ccc([N+](=O)[O-])cc2)c1=O | > 100
COc1cc(C[S+]2CCCC2)c(SC)cc1C[S+]1CCCC1 | > 100
CCn1c(-c2cc(OC)cc(OC)c2)nc2c1C(=O)c1ccccc1C2=O | > 100
COc1cc(-c2cc(=O)c3c(OC)c(OC)c(OC)c(OC)c3o2)c(OC)c(OC)c1OC | > 100
C[C@]12C=CC(=O)C=C1CC[C@H]1[C@@H]3C[C@@H](O)[C@](O)(C(=O)CO)[C@@]3(C)C[C@H](O)[C@@]12F | > 100
O=S(=O)(c1ccccc1)n1c2cc3cccnc3nc2c2cccnc21 | > 100
COc1cc(/C=C2\CCC(C)C3C2=NN(C(C)=O)C3c2cc(OC)c(OC)c(OC)c2)cc(OC)c1OC (centres undefined) | > 100
Cc1cc(N(CCC#N)CCC#N)ccc1/C(N=Nc1ccc([N+](=O)[O-])cc1)=N\NC(=O)c1cc(Cl)ccc1C(=O)c1ccccc1 | 42.3
CC(=O)NC1C(OCc2ccccc2)OC(CO)C(O)C1OC(C)C(=O)NC(C)C(=O)NC(CCC(=O)NCCCNc1c2ccccc2nc2cccc([N+](=O)[O-])c12)C(N)=O (centres undefined) | 6.32
NC(=O)C(N)Cc1ccc(O)cn1 (centres undefined) | > 100
CC[N+](CC)(CCNCC(N)=O)CC(N)=O | > 10
COc1ccc(N=C2SC(=N/N=c3\sc4ccccc4n3C)SC2=Nc2ccc(OC)cc2)cc1 | > 100
Cc1ccc(/C=N/n2c(=O)[nH]c3ccccc3c2=O)cc1 | > 100
S=C(c1c[nH]c2ccccc12)N1CCOCC1 | > 100
COc1ccc(C2CC(=O)CC(c3ccc(OC)cc3)C23C(=O)NC(=O)NC3=O)cc1 (centres undefined) | > 100
COC(C)(C)C1=CCC(C)CC1 (centres undefined) | > 100
c1ccc2sc(C3(N4CCCC4)CCCCCC3)cc2c1 | 35.9
